Consider six molecules from article PMC9060145 (Skin Health and Disease, 2021).

Structures are written as SMILES. pEC50, pIC50: −log10 of the molar value.

The target of one data set is T1, MR (Homo sapiens, UniProt P08235).
T1 construct: expressed in transfected cells; host or cells: recombinant HeLa cell lines
T1 sequence (P08235 1-984): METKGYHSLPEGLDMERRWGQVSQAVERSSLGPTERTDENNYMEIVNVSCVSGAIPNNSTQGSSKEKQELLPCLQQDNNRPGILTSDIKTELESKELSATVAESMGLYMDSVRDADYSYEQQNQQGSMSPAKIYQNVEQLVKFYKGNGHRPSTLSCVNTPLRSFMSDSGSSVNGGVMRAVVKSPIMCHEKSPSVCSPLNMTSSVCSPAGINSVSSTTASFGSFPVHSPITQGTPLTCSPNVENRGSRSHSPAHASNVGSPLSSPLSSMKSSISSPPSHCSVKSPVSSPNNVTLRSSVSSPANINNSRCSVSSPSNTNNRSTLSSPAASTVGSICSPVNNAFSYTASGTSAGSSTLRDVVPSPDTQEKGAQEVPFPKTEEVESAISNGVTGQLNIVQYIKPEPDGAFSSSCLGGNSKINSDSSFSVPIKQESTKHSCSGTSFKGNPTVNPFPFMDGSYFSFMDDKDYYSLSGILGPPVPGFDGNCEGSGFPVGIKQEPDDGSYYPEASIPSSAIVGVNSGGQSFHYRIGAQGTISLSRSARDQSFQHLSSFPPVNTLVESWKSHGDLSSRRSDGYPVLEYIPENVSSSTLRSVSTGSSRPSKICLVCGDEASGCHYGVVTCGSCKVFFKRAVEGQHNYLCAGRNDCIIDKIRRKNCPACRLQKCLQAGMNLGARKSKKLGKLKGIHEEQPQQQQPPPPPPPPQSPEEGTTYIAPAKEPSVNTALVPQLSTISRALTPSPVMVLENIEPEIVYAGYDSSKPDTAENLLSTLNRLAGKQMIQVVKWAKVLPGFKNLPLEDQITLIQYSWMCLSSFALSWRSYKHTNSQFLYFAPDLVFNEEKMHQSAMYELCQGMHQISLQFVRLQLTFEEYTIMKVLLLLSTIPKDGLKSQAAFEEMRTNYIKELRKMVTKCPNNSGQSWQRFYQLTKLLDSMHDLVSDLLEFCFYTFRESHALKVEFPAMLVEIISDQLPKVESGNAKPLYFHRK
Briefly: Nuclear receptor profiling, luciferase reporter in recombinant HeLa cells. In kind it is cell-based. As to conditions: IA = Inactive. As to the method:
(§1) Nuclear receptor profiling, excluding retinoid X receptor (RXR), was previously described in detail.[24] Briefly, profiling was done using the Steady‐Glo luciferase assay kit (Promega, E2550) in recombinant HeLa cell lines expressing the respective receptors. Compounds were treated at nine doses (n = 2/dose) from 0.00015–10 µM. Data were normalized to minimum and maximum controls and 4‐parameter logistic regression fitting (Figure S2) was performed in XLfit software (IDBS).
(Reporter assays use an easily measured gene product as a stand-in for the process of interest.)

The target of a further data set is T2, LXRβ (Homo sapiens, UniProt P55055).
T2 construct: expressed in transfected cells; host or cells: recombinant HeLa cell lines
T2 sequence (P55055 1-460): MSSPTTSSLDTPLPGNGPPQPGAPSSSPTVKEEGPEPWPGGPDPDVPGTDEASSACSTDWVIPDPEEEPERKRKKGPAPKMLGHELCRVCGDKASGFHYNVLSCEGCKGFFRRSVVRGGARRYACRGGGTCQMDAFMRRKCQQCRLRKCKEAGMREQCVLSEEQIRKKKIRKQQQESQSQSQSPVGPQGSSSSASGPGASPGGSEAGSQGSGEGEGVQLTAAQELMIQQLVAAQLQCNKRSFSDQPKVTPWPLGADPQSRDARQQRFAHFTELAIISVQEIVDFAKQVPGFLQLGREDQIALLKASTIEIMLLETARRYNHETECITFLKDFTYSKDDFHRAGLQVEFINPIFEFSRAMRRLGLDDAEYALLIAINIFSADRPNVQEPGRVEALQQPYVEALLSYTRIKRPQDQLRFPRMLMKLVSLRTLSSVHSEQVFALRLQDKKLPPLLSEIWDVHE
The description is as above. In kind it is cell-based. As to the method: as §1

Another data set deals with T3, CYP19 (Homo sapiens, UniProt P11511).
T3 construct: purchased Corning (Woburn, MA)
T3 sequence (P11511 1-503): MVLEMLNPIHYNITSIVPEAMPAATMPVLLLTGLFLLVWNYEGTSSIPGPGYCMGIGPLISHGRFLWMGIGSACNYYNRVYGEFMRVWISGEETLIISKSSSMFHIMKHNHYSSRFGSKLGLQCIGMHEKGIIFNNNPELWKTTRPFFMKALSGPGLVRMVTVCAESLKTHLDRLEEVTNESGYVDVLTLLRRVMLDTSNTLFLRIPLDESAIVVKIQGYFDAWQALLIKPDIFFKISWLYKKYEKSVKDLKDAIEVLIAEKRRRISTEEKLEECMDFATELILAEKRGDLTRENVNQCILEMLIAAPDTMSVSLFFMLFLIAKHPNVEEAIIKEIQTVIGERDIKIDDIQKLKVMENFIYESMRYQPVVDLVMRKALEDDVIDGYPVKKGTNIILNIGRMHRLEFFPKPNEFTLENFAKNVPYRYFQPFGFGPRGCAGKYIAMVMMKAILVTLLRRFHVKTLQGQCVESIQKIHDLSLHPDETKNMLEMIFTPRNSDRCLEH
The data set is described as follows: Qualitative CYP19 screening, CYP19 Supersomes, HPLC-MS/MS. It counts as biochemical. How it is done: (§2) CYP450 inhibition assays (excluding CYP19 and 1 µM CYP2C8) were performed as previously described.[31] Substrate metabolite formation was measured by HPLC‐MS/MS. Percent of control activity was determined by comparing metabolite peak areas with and without test compound. Qualitative screening of CYP2C8 (1 µM) and CYP19 is described in detail in Supporting Information. Reference compound IC50 values were determined by non‐linear regression analysis using Hill equation curve fitting.
In vitro CYP19 screening was carried out in triplicate using a modified HPLC-MS/MS protocol based on methodology provided by Admescope Ltd. DMSO stock solutions of test compounds, positive control liarozole, androstenedione substrate and solvent control were diluted with 100 mM phosphate buffer (pH 7.4) such that DMSO content in final assay conditions was 1% in a volume of 200 µL. Briefly, to a microfuge tube was added 1 µM substrate, 1 mM NAPDH, and 0.1-1 µM test compounds (final concentrations after enzyme addition) in phosphate buffer before pre-incubating for 2 min at 37 °C. CYP19/CYP450 reductase Supersomes™ enzyme (50 µL, 1.5 pmol/mL) was added to each tube, gently mixed, then incubated at 37 °C for 30 min. The reaction was quenched with an equal volume of acetonitrile containing cortisone internal standard (100 nM). […]

A further data set concerns the target T4, RARα (Homo sapiens, UniProt P10276).
T4 construct: expressed in transfected cells; host or cells: recombinant HeLa cell lines
T4 sequence (P10276 1-462): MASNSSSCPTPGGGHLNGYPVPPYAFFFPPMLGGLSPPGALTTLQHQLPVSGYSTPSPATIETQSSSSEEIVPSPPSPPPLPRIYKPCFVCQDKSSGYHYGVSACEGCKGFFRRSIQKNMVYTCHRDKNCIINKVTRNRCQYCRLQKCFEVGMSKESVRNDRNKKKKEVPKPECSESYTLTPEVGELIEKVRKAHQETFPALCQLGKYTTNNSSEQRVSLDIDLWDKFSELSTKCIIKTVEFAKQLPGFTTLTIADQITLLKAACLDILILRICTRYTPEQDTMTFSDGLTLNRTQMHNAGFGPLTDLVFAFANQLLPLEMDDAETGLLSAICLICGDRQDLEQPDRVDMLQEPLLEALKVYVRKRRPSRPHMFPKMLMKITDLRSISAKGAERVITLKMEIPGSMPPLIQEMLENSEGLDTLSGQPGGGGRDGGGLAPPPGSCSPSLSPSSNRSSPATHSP
Briefly: Nuclear receptor profiling, luciferase reporter in recombinant HeLa cells. It counts as cell-based. How it is done: as §1

The target in a further data set is T5, RARγ (Homo sapiens, UniProt P13631).
T5 construct: expressed in transfected cells; host or cells: recombinant HeLa cell lines
T5 sequence (P13631 1-454): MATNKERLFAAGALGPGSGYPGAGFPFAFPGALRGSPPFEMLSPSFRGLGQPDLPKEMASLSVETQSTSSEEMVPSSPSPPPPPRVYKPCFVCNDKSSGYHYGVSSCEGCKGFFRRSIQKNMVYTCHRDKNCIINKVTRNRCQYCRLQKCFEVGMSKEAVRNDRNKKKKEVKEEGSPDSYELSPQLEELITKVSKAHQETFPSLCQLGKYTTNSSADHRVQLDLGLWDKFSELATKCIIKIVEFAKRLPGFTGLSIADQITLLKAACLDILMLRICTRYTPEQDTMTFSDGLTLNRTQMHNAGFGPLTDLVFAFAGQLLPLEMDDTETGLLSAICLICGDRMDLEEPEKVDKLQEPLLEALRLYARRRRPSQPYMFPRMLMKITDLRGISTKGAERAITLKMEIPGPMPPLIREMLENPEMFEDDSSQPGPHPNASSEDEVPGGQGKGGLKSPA
Described as above. Conditions: IA = Inactive. In kind it is cell-based. How it is done: as §1

Another data set addresses T6, RARβ (Homo sapiens, UniProt P10826).
T6 construct: expressed in transfected cells; host or cells: recombinant HeLa cell lines
T6 sequence (P10826 1-455): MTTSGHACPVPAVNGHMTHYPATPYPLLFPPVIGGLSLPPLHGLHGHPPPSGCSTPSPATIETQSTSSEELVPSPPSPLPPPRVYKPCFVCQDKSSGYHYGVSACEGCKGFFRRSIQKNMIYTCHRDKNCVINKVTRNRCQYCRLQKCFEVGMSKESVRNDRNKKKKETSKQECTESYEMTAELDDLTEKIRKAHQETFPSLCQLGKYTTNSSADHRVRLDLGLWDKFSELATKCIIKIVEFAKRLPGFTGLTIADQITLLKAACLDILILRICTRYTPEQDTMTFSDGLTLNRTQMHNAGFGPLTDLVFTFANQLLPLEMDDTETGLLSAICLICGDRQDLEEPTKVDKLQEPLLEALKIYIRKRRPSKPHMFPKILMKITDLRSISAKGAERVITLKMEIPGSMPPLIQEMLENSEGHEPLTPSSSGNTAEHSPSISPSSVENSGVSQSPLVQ
The data set is described as above. In kind it is cell-based. How it is done: as §1

For the next data set, the target named is T7, CYP2B6 (Homo sapiens, UniProt P20813).
T7 construct: from tissue; host or cells: human liver microsomes (per the earlier reading and the cited method)
T7 sequence (P20813 1-491): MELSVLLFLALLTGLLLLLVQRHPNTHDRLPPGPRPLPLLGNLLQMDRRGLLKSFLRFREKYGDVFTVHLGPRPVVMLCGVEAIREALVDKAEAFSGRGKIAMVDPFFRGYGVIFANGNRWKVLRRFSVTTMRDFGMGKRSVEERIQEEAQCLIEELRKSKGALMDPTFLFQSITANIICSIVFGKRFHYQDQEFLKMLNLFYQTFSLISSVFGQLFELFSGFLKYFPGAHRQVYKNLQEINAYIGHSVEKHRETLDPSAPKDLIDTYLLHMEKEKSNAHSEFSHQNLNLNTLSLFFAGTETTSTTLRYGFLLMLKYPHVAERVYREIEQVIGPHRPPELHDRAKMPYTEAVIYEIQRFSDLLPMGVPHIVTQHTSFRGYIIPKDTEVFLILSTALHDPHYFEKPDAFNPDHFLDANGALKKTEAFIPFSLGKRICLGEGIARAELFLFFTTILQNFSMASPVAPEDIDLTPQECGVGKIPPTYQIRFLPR
The data set is described as follows: CYP450 inhibition assay, human liver microsomes. It counts as biochemical. As to the method:
as §2

The target of a further data set is T8, CYP2C19 (Homo sapiens, UniProt P33261).
T8 construct: from tissue; host or cells: human liver microsomes (per the earlier reading and the cited method)
T8 sequence (P33261 whole entry): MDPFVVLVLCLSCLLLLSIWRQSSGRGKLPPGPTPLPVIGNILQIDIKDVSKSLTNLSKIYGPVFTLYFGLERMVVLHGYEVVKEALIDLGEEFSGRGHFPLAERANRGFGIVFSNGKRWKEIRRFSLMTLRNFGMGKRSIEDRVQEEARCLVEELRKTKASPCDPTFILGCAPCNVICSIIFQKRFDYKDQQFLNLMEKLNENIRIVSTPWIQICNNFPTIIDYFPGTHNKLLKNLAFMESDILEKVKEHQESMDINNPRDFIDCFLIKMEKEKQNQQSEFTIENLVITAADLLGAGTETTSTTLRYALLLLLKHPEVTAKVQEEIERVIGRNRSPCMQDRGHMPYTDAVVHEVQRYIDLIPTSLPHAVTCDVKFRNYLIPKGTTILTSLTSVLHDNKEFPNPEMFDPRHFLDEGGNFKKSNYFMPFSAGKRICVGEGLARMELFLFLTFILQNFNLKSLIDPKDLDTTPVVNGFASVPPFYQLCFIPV
Briefly: CYP450 inhibition assay, human liver microsomes. As to conditions: substrate omeprazole. In kind it is biochemical. (In general: Microsomes from liver hold many membrane-bound enzymes, among them those of drug oxidation.)

`C[C@]12C[C@H](O)[C@H]3[C@@H](CCC4=CC(=O)CC[C@@]43C)[C@@H]1CC[C@@H]2C(=O)CO` [Corticosterone]: the pEC50 – broadly, −log10 of the EC50, conventionally taken in molar units – at MR is 9.40.
With `O=C(O)Cc1cccc(OCCCN(Cc2cccc(C(F)(F)F)c2Cl)CC(c2ccccc2)c2ccccc2)c1` [GW3965], the negative-log EC50 (pEC50) at LXRβ was 6.70.
For `Clc1cccc(C(c2ccc3[nH]cnc3c2)n2ccnc2)c1` (stereo not shown) [Liarozole], the inhibition (in general, the percentage by which the read-out fell short of the control) at 0.1 µM on CYP19 (0.1 µM compound, substrate androstenedione, calculated from decrease in metabolite formation, read-out: % Inhibition (reduction of CYP19 activity)) is 61.1%. This molecule returned an inhibition at 1 µM against CYP19 (reference concentration 1000 nM, androstenedione 1000 nM, 30 min, 37°C) of 83.8%.
As to `CC1(C)CCSc2ccc(C#Cc3ccc(C(=O)O)cn3)cc21` [Tazarotenic acid], the negative logarithm of the EC50 (pEC50) is 7.49 at RARα, 7.60 at RARγ and 8.49 at RARβ.
For `COC(=O)[C@H](c1ccccc1Cl)N1CCc2sccc2C1` [clopidogrel], the pIC50 (commonly the negative decadic logarithm of the IC50, by convention in mol/L) at CYP2B6 is 6.43. At CYP2B6 (substrate bupropion), the “nH (hill coefficient)” value was found to be 1.3.
In the case of `CCN(CC)CC#CCOC(=O)C(O)(c1ccccc1)C1CCCCC1` (stereo not shown) [oxybutynin], the “nH (hill coefficient)” value at CYP2C19 is 0.8.
